For orientation: IC50 means the concentration at which inhibition is half-maximal. A low value points to higher potency.

The experiment concerns the target T1, human MGL from HeLa cells (Homo sapiens, UniProt Q99685).
T1 construct: combining endogenously expressed MGL from HeLa cells with test compounds; endogenous in cells; host or cells: HeLa cells / cell homogenates
T1 sequence (Q99685 1-303): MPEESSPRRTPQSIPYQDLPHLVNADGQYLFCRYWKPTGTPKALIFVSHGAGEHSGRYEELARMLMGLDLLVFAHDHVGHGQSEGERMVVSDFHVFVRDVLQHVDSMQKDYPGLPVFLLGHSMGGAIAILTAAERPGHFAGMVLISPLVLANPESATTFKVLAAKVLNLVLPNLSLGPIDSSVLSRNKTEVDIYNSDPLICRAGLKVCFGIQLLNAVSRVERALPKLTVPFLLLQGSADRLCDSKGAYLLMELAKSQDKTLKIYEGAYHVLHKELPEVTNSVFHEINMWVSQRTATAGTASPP
Description: In vitro MGL activity assay: [glycerol-1,3-3H]-oleyl glycerol cleavage by MGL from HeLa cells. Conditions: 300 nM [Glycerol-1,3-3H]-oleyl glycerol, one hour. In kind it is biochemical. An excerpt: MGL is the predominant hydrolase in HeLa cells/cell homogenates.
Take `C[C@H]1c2nn(C)c(-c3cc(F)c(F)c(F)c3)c2CCN1C(=O)c1cnn2c1OCCC2` [Example 554, 6,7-Dihydro-5H-pyrazolo[5,1-b][1,3]oxazin-3-yl-[(7S)-2,7-dimethyl-3-(3,4,5-trifluorophenyl)-5,7-dihydro-4H-pyrazolo[3,4-c]pyridin-6-yl]methanone]: the concentration for half-maximal inhibition (IC50) amounted to 57.6 nM. Regarding `Cc1c(C(=O)N2CCc3c(nn(C)c3-c3cc(F)c(F)c(F)c3)[C@@H]2C)nn2c1OCCC2` [Example 555, [(7S)-2,7-Dimethyl-3-(3,4,5-trifluorophenyl)-5,7-dihydro-4H-pyrazolo[3,4-c]pyridin-6-yl]-(3-methyl-6,7-dihydro-5H-pyrazolo[5,1-b][1,3]oxazin-2-yl)methanone], the half-maximal inhibitory concentration (IC50) amounted to 183 nM.

With `Cc1nn2c(c1C(=O)N1CCc3c(nn(C)c3-c3cc(F)c(F)c(F)c3)[C@@H]1C)COC(C)(C)C2` [Example 556, [(7S)-2,7-Dimethyl-3-(3,4,5-trifluorophenyl)-5,7-dihydro-4H-pyrazolo[3,4-c]pyridin-6-yl]-(2,6,6-trimethyl-4,7-dihydropyrazolo[5,1-c][1,4]oxazin-3-yl)methanone], the IC50 came to 803 nM. The compound `Cc1c(C(=O)N2CCc3c(nn(C)c3-c3cc(F)c(F)c(F)c3)[C@@H]2C)nn2c1COC(C)(C)C2` [Example 557, [(7S)-2,7-Dimethyl-3-(3,4,5-trifluorophenyl)-5,7-dihydro-4H-pyrazolo[3,4-c]pyridin-6-yl]-(3,6,6-trimethyl-4,7-dihydropyrazolo[5,1-c][1,4]oxazin-2-yl)methanone] registered an IC50 of 1840 nM. Consider `C[C@H]1c2nn(C)c(-c3cc(F)c(F)c(F)c3)c2CCN1C(=O)c1cnn2c1NCCC2C(F)(F)F` (stereo partly drawn) [Example 558, ((S)-2,7-Dimethyl-3-(3,4,5-trifluorophenyl)-4,5-dihydro-2H-pyrazolo[3,4-c]pyridin-6 (7H)-yl)(7-(trifluoromethyl)-4,5,6,7-tetrahydropyrazolo[1,5-a]pyrimidin-3-yl)methanone], for which the IC50 was found to be 1800 nM. With `C[C@H]1c2nn(C)c(-c3cc(F)c(F)c(F)c3)c2CCN1C(=O)c1cnc2n1CCC2` [Example 559, 6,7-Dihydro-5H-pyrrolo[1,2-a]imidazol-3-yl-[(7S)-2,7-dimethyl-3-(3,4,5-trifluorophenyl)-5,7-dihydro-4H-pyrazolo[3,4-c]pyridin-6-yl]methanone], inhibition was half-maximal at 294 nM (IC50). Consider `C[C@H]1c2nn(C)c(-c3cc(F)c(F)c(F)c3)c2CCN1C(=O)c1cnc2n1CCCC2` [Example 560, [(7S)-2,7-Dimethyl-3-(3,4,5-trifluorophenyl)-5,7-dihydro-4H-pyrazolo[3,4-c]pyridin-6-yl]-(5,6,7,8-tetrahydroimidazo[1,2-a]pyridin-3-yl)methanone], for which the IC50 came out at 120 nM.

`C[C@H]1c2nn(C)c(-c3cc(F)c(F)c(F)c3)c2CCN1C(=O)c1c(C(F)F)nc2n1CCCC2` [Example 561, [2-(Difluoromethyl)-5,6,7,8-tetrahydroimidazo[1,2-a]pyridin-3-yl]-[(7S)-2,7-dimethyl-3-(3,4,5-trifluorophenyl)-5,7-dihydro-4H-pyrazolo[3,4-c]pyridin-6-yl]methanone]: the IC50 was found to be 326 nM.

In turn, `C[C@H]1c2nn(C)c(-c3cc(F)c(F)c(F)c3)c2CCN1C(=O)c1cnc2n1CCOC2` [Example 562, 6,8-Dihydro-5H-imidazo[2,1-c][1,4]oxazin-3-yl-[(7S)-2,7-dimethyl-3-(3,4,5-trifluorophenyl)-5,7-dihydro-4H-pyrazolo[3,4-c]pyridin-6-yl]methanone] came in with an IC50 of 717 nM. As for `C[C@H]1c2nn(C)c(-c3cc(F)c(F)c(F)c3)c2CCN1C(=O)c1cnc2c(c1)CCCO2` [Example 563, 3,4-Dihydro-2H-pyrano[2,3-b]pyridin-6-yl-[(7S)-2,7-dimethyl-3-(3,4,5-trifluorophenyl)-5,7-dihydro-4H-pyrazolo[3,4-c]pyridin-6-yl]methanone], the 50% inhibitory concentration (IC50) was 329 nM. With `C[C@H]1c2nn(C)c(-c3cc(F)c(F)c(F)c3)c2CCN1C(=O)c1ccnc2c1CCCO2` [Example 564, 3,4-Dihydro-2H-pyrano[2,3-b]pyridin-5-yl-[(7S)-2,7-dimethyl-3-(3,4,5-trifluorophenyl)-5,7-dihydro-4H-pyrazolo[3,4-c]pyridin-6-yl]methanone], the IC50 turned out to be 58.7 nM. Consider `C[C@H]1c2nn(C)c(-c3cc(F)c(F)c(F)c3)c2CCN1C(=O)c1ccnc2c1CCOC2` [Example 565, 6,8-Dihydro-5H-pyrano[3,4-b]pyridin-4-yl-[(7S)-2,7-dimethyl-3-(3,4,5-trifluorophenyl)-5,7-dihydro-4H-pyrazolo[3,4-c]pyridin-6-yl]methanone], for which the IC50 was 108 nM. The compound `C[C@H]1c2nn(C)c(-c3cc(F)c(F)c(F)c3)c2CCN1C(=O)c1ccc2c(n1)COCC2` [Example 566, 6,8-Dihydro-5H-pyrano[3,4-b]pyridin-2-yl-[(7S)-2,7-dimethyl-3-(3,4,5-trifluorophenyl)-5,7-dihydro-4H-pyrazolo[3,4-c]pyridin-6-yl]methanone] showed an IC50 of 533 nM. With `C[C@H]1c2nn(C)c(-c3cc(F)c(F)c(F)c3)c2CCN1C(=O)c1cnc2c(c1)COCC2` [Example 567, 7,8-Dihydro-5H-pyrano[4,3-b]pyridin-3-yl-[(7S)-2,7-dimethyl-3-(3,4,5-trifluorophenyl)-5,7-dihydro-4H-pyrazolo[3,4-c]pyridin-6-yl]methanone] the figure was 1050 nM; with `C[C@H]1c2nn(C)c(-c3cc(F)c(F)c(F)c3)c2CCN1C(=O)c1ccnc2c1OCCC2` [Example 568, 3,4-Dihydro-2H-pyrano[3,2-b]pyridin-8-yl-[(7S)-2,7-dimethyl-3-(3,4,5-trifluorophenyl)-5,7-dihydro-4H-pyrazolo[3,4-c]pyridin-6-yl]methanone], 9.68 nM; with `C[C@H]1c2nn(C)c(-c3cc(F)c(F)c(F)c3)c2CCN1C(=O)c1ccnc2c1OCCO2` [Example 569, 2,3-Dihydro-[1,4]dioxino[2,3-b]pyridin-8-yl-[(7S)-2,7-dimethyl-3-(3,4,5-trifluorophenyl)-5,7-dihydro-4H-pyrazolo[3,4-c]pyridin-6-yl]methanone], 28.7 nM. `C[C@H]1c2nn(C)c(-c3cc(F)c(F)c(F)c3)c2CCN1C(=O)c1cnc2c(c1)OCCO2` [Example 570, 2,3-Dihydro-[1,4]dioxino[2,3-b]pyridin-7-yl-[(7S)-2,7-dimethyl-3-(3,4,5-trifluorophenyl)-5,7-dihydro-4H-pyrazolo[3,4-c]pyridin-6-yl]methanone] returned a concentration for half-maximal inhibition (IC50) of 136 nM. In turn, `C[C@H]1c2nn(C)c(-c3cc(F)c(F)c(F)c3)c2CCN1C(=O)c1cnc2c(c1)OCCN2` [Example 571, 3,4-Dihydro-2H-pyrido[3,2-b][1,4]oxazin-7-yl-[(7S)-2,7-dimethyl-3-(3,4,5-trifluorophenyl)-5,7-dihydro-4H-pyrazolo[3,4-c]pyridin-6-yl]methanone] displayed an IC50 of 12.7 nM. Turning to `C[C@H]1c2nn(C)c(-c3cc(F)c(F)c(F)c3)c2CCN1C(=O)c1cnc2c(c1)OCCN2C` [Example 572, [(7S)-2,7-Dimethyl-3-(3,4,5-trifluorophenyl)-5,7-dihydro-4H-pyrazolo[3,4-c]pyridin-6-yl]-(4-methyl-2,3-dihydropyrido[3,2-b][1,4]oxazin-7-yl)methanone], the half-inhibitory concentration (IC50) stood at 51.9 nM.

The values above are taken from patent publication US11820766B2, “Monoacylglycerol lipase modulators” (Janssen Pharmaceutica NV, priority 2018, dated 2023).
